We go through 2 compounds from patent US6825231B2, “Substituted norbornylamino derivatives, processes for their preparation, their use as medicaments or diagnostics, and a medicament comprising them” (Aventis Pharma Deutschland GmbH, priority 1999, dated 2004).

One data set concerns male Wistar rats. In words: Diuresis (salidiuresis) experiment in rats. In kind it is in vivo, rat. Conditions: for Cl / K / Na: urine excretion; for Na/K / Osmolality: urine. Here is the method: The salidiuresis experiment was carried out using male Wistar rats having a weight of 155 to 175 g. 16 hours before the start of the experiment, the feed, but not the drinking water, was withdrawn from the animals. The rats were randomized and placed into diuresis cages. […] The control group received, orally, the corresponding volume of drinking water as vehicle. The excretion of urine of each group for the first 5 hours and in the period from 6 to 24 hours was measured. The urine electrolytes sodium and potassium were determined by flame photometry (flame photometer Eppendorf, Hamburg), and chloride was determined potentiometrically (chloride meter Eppendorf). The osmolality of the urine was determined using the freezing-point depression method (osmometer Vogel, Gieβen). Urine and electrolyte excretion and osmolality are stated in ml/kg, mmol/kg, and mosmol/kg of body weight, respectively. The ratio of Na^+/K^+ is an indication of the quality of effect of a diuretic. The results given in the table are arithmetic means with standard deviation.

Another data set addresses T1, Rat NHE3 (Rattus norvegicus, UniProt P26433).
T1 construct: expressed in transfected cells
Description: NHE activity measurement: pHi recovery after acid load in transfected LAP1 cells. Conditions: pH recovery after acid load, 3 minutes. In kind it is cell-based. The text has this:
Most molecular biology techniques follow protocols from the works “Current Protocols in Molecular Biology (eds. Ausubel, F. M., Brent, R., Kingston, R. E., Moore, D. D., Seidman, J. G., Smith, J. A. and Struhl, K.; John Wiley & Sons)” or: “Molecular Cloning: A Laboratory Manual (Sambrock, J., Fritsch, E. F. and Maniatis, T.; Cold Spring Harbor Laboratory Press (1989))”. In our studies, stable transfected cell lines were produced which in each case express one of the following NHE subtypes: NHE1 of man (Sardet et al. Cell 56, 271-280 (1989)), NHE2 of the rabbit (Tse et al. J. Biol. Chem. 268, 11917-11924 (1993)), NHE3 from humans (Brant et al. Am. J. Physiol. 269 (Cell Physiol. 38), C198-C206 (1995)) or NHE3 of the rat (Orlowski et al.; J. Biol. Chem. 267, 9331-9339 (1992)).
After adding suitable linker sequences, the cDNA clones of the respective NHE subtypes obtained by Prof. Pouyssegur were cloned into the expression plasmid pMAMneo (obtainable, for example, via CLONTECH, Heidelberg) such that the Nhel restriction endonuclease recognition sequence of the plasmid is approximately 20-100 base pairs before the start codon of the respective NHE subtype and the entire coding sequence is present in the construct. In the human NHE3 obtained from human kidney mRNA via RT-PCR, the RT-PCR primer were selected such that the resulting cDNA band had terminal restriction sites which matched pMAMneo.
Using the so-called “calcium phosphate method” (described in Chapter 9.1 of “Current Protocols in Molecular Biology”), the NHE-deficient cell line LAP1 (Franchi et al.; Proc. Natl. Acad. Sci. USA 83, 9388-9392 (1986)) was transfected with the plasmids which contain the respective coding sequences of the NHE subtypes. After selection of transfected cells by means of growth in G418-containing medium (only cells which as a result of transfection contain a neogene can survive under these conditions), a selection was made for functional NHE expression. To do this, the “Acid Load” technique described by Sardet was used (Sardet et al.; Cell 56, 271-280 (1989)). Cells which express a functioning NHE subtype can also compensate in the absence of CO2 and HCO3- for the acidification carried out during this test, but untransfected LAP1 cells cannot. After repetition of the “Acid Load” selection several times, the surviving cells were inoculated into microtiter plates such that statistically there should have been one cell per well. Under the microscope, a check was made after approximately 10 days as to how many colonies were growing per well. Cell populations of individual colonies were then investigated with respect to their viability after “Acid Load” using the XTT proliferation kit (Boehringer Mannheim). The best cell lines were used for the further tests, and to avoid a loss of the transfected sequence were cultured under continuous selection pressure in G418-containing medium.
To determine IC50-values for the inhibition of the individual NHE subtypes by specific substances, a test developed by S. Faber (Faber et al.; Cell. Physiol. Biochem. 6, 39-49 (1996)), which is based on the “Acid Load” technique, was slightly modified.
In this test, the recovery of the intracellular pH (pHi) after an acidification was determined, which commences with functioning NHE even under bicarbonate-free conditions. To do this, the pHi was determined using the pH-sensitive fluorescent dye BCECF (Calbiochem, the precursor BCECF-AM is employed). The cells were first loaded with BCECF. The BCECF fluorescence was determined in a “Ratio Fluorescence Spectrometer” (Photon Technology International, South Brunswick, N.J., USA) at excitation wavelengths of 505 and 440 nm and an emission wavelength of 535 nm and converted into the pHi by means of calibration curves. […]

A further data set deals with Caco 2 cells. Description: Caco 2 model (transport across monolayers, absorbed fraction). To be noted: Caco 2 monolayers, apical to basolateral, assessed from Papp via calibration curve. In kind it is in vitro ADME. Here is the method:
The Caco 2 cell line was obtained from the American Type Culture Collection (ATCC) and kept in Dulbecco's Modified Eagle Medium (high proportion of glucose), supplemented with non-essential amino acids, L-glutamine, penicillin/streptomycin, and 10% strength fetal calf serum, in an incubator under a 10% CO2 atmosphere at 95% relative atmospheric humidity and at 37° C. The cells were grown in cell culture flasks (175 cm^2). For the transport studies, the Caco 2 cells were inoculated onto polycarbonate cell culture inserts (COSTAR TRANSWELLS®, pore size: 3 μm, surface: 4.71 cm^2) at a cell density of 6.5×10^4 cells/cm^2 and incubated in six-well culture trays, changing the medium after four and eight days and then every other day. 21- to 25-day-old monolayers were used for the experiments.
In each test series, a 21-day-old monolayer was tested for its properties using ^3H-dextrane as permeability marker. The value of the transfer rate (cumulative) after 120 min had to be in the range of 2%.
The growth medium was removed from the apical and the basolateral side and the monolayers were then rinsed with the transport buffer (Hank's balanced salt solution pH 7.8; contains 2.8 g/l of glucose), and the cells were equilibrated at 37° C. under a 10% CO2 atmosphere for 15 min. The HBSS buffer is then removed.
The test compounds were dissolved in a mixture of HBSS buffer and DMSO and added to the apical buffer, giving a 1% strength (v/v) DMSO solution. The test concentration for the first experiment was 1 mM, that for the second experiment was 100 μM. The experiments were carried out at 37° C. and started by adding 1.5 ml of test solution on the donor side (apical). Transport buffer without compound was added to the recipient side (basolateral, 2.5 ml). […] Apical samples were taken at the start and at the end (120 min), so that the recovery rate of the compounds could be determined using these concentrations and the cumulative basolateral concentration. The compounds were analyzed by HPLC.
The apparent permeability coefficient (Papp) is calculated using the following equation: [formula]
in which dc/dt denotes the flow through the monolayer (μg of compound/(ml×s)), V denotes the liquid volume in the collection chamber (ml), A denotes the surface area of the monolayer (cm^2) and c0 denotes the initial concentration (μg of compound/ml) in the donor chamber. The flow through the monolayer was calculated from the cumulative basolateral concentration at the corresponding point of time using the initially linear data curve (linear up to 60 min). All determinations were carried out in three replications, so that the calculated Papp value is the mean of three measurements. […]
A general note: Caco-2 monolayers are a common model of the intestinal barrier.

For a further data set, the target named is NHE3 (Oryctolagus cuniculus, UniProt P26432). To be noted: literature: Donowitz et al. Am. J. Physiol. 276: C136-C144; cited from earlier work.
Chain of NHE3 (P26432 30-832): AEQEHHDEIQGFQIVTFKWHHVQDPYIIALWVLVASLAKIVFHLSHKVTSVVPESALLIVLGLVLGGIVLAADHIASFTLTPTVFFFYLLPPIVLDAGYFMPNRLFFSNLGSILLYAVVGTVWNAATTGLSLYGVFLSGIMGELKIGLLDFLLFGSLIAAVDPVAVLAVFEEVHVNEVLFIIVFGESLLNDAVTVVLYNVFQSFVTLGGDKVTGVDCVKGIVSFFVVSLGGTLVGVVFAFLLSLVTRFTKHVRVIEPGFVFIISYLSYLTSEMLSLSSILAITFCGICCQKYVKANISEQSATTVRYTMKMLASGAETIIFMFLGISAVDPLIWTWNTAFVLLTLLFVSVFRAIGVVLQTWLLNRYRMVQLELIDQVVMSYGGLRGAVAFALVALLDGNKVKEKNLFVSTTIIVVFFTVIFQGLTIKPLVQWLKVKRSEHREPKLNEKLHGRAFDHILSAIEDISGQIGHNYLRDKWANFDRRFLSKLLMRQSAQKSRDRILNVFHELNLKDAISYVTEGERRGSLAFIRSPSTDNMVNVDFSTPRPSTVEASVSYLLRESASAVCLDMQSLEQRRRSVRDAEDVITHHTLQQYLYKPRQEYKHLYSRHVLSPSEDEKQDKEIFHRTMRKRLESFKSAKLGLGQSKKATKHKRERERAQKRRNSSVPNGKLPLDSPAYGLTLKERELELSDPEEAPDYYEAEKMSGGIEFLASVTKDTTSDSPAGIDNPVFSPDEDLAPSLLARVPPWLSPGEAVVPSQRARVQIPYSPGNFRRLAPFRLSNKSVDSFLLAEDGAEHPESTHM
Where [1] appears, read: 50 mg/kg p.o., mean, 6-24 hours.
Where [2] appears, read: 50 mg/kg p.o., mean, sum 1-24 hours.

T1 sequence (P26433 29-831): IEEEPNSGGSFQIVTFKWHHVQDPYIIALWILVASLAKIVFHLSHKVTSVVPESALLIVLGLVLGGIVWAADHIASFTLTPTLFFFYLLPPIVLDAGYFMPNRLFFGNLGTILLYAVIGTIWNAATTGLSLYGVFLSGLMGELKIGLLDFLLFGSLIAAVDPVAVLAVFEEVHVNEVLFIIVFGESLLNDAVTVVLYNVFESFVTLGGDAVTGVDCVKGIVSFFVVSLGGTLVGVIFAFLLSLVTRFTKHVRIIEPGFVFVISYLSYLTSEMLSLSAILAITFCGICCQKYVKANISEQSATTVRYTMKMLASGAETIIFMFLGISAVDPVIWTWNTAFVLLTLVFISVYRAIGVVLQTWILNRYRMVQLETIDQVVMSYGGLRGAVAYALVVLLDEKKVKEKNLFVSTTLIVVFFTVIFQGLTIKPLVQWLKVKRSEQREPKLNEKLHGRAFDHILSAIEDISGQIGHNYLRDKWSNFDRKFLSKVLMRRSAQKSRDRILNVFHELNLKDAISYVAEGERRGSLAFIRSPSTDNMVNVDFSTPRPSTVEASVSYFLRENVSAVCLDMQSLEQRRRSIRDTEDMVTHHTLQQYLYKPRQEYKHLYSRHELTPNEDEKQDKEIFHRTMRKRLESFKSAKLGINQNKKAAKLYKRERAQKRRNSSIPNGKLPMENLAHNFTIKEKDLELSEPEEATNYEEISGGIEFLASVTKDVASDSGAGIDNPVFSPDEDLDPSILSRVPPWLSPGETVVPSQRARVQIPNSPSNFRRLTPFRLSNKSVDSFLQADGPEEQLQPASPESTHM

In the data set with male Wistar rats (50 mg in 10 ml of drinking water/kg of BW p.o., n = 5, mean, 1-5 hours), `COc1cccc(CN[C@@H]2C[C@@H]3C[C@H]2[C@@H]2CCC[C@H]32)c1.Cl` (racemic) [Example 5, rac-(exo/endo)-(3-methoxybenzyl)(octahydro-4,7-methanoinden-5-yl)amine hydrochloride] yielded a Urine of 12.39 mL/kg. In the data set with male Wistar rats (50 mg/kg orally, compared to the control), the “salidiuretic effect (assessment)” value is reported as “no salidiuretic effect”. In the data set on male Wistar rats (setting [1]), the Urine came to 22.57 mL/kg, the Cl came to 1.57 mmol/kg, the K was 3.57 mmol/kg and the Na was 1.29 mmol/kg. In the data set on male Wistar rats (setting [1]), the Na/K is listed as 0.37 and the Osmolality is recorded as 30.51 mosmol/kg. Also, in the data set with male Wistar rats (setting [2]), the Urine is 34.96 mL/kg, the Cl is recorded as 2.17 mmol/kg, the K was 4.31 mmol/kg and the Na was 1.60 mmol/kg. Besides, in the data set with male Wistar rats (setting [2]), the Na/K is on record as 0.38 and the Osmolality is 38.33 mosmol/kg. In the data set with male Wistar rats (50 mg/kg p.o., mean, 1-5 hours), this compound showed a Cl of 0.60 mmol/kg, a K of 0.75 mmol/kg, a Na of 0.31 mmol/kg and a Na/K of 0.47. In the data set on male Wistar rats (50 mg/kg p.o., mean, 1-5 hours), the Osmolality turned out to be 7.82 mosmol/kg. The compound also had an IC50 against Rat NHE3 of 810 nM. The same compound had an Absorbed fraction with Caco 2 cells of 100%.
For `CC(C)[C@@H](CC[C@@H](C)[C@H]1CC[C@H]2[C@@H]3[C@H](O)C[C@H]4C[C@@H](NCCCNCCCCN)CC[C@]4(C)[C@H]3CC[C@]12C)OS(=O)(=O)O` [squalamine], on NHE3, the “delay of NHE3 inhibitory activity” value was “activity seen after one hour”.

As a reminder, the IC50 is the midpoint of a concentration-inhibition curve.
